Data from paper PMC3425516 (PLoS ONE, 2012).
Where “and” joins values, the source holds several entries; their conditions need not be identical. Identical values can stand only once.

Tests used:
[1] = tested on: HCT116 cells; assay: Western blot histone H3 and α-tubulin acetylation; type: cell-based, human; settings: 24 h
Procedure: (§1) For total lysate, cells were lysed with the 120 µL ice-cold lysis buffer [10 mmol/L Tris-HCl (pH 7.4), 150 mmol/L NaCl, 1 mmol/L EGTA, 1 mmol/L phenylmethylsulfonyl fluoride, 10 µg/mL aprotinin, 10 µg/mL leupeptin, 1 mM sodium orthovandate, 1 mM NaF, and 1% Triton X-100]. Cell lysates were centrifuged at 13,000 rpm for 30 min. For Western blot analysis, the amount of protein (40 µg) was separated by electrophoresis in a 10% or 15% polyacrylamide gel and transferred to a polyvinylidene difluoride (PVDF) membrane. After 1 h incubation at room temperature in PBS/5% nonfat milk, the membrane was washed with PBS/0.1% and incubated with the indicated antibodies at 4°C overnight. After washings with PBS/0.1% Tween 20, the corresponding secondary antibodies were applied to the membranes for 1 h at room temperature. The membranes were then washed with PBS/0.1% Tween 20 and the detection of signal was done with an enhanced chemiluminescence detection kit (Amersham, Buckinghamshire, UK).

[2] = Body weight and adverse effects in xenograft study; type: in vivo, nude mice; settings: HCT116 xenograft mice, oral daily treatment
Procedure: (A) Tumors were measured regularly and growth delay was calculated for treatment groups relative to control tumors (TGD). (B) Kaplan-Meier survival analysis was based on the tumor growth endpoint. (C) Inhibition of tumor growth curves represented a mean±SEM and percentage change in mean tumor volume (percent TGI). (D) Body weights were measured daily during the first week and then 2 times per week. The body weight ratio was calculated relative to the baseline measurement.
(§2) Once a tumor was palpable with the size of approximately 55 mm^3, mice were randomized into vehicle control and treatment groups (8 mice per group). Control mice received the vehicle (0.5% carboxymethyl cellulose +0.1% Tween 80). Tumors in all 3 groups were allowed to reach an endpoint volume of 1,200 mm^3.

[3] = tested on: HCT116 cells; assay: Flow cytometry cell cycle / sub-G1 analysis; type: cell-based, human
Procedure: After centrifugation, cells were incubated in 0.1 mol/L phosphate-citric acid buffer [0.2 mol/L NaHPO4, 0.1 mol/L citric acid (pH 7.8)] for 20 min at room temperature. Then, the cells were centrifuged and resuspended with 0.5 mL PI solution containing Triton X-100 (0.1%, v/v), RNase (100 µg/mL), and PI (80 µg/mL). DNA content was analyzed with the FACScan and CellQuest software (Becton Dickinson).

[4] = tested on: HCT116 xenograft tumors; assay: Western blot of HCT116 xenograft tumor tissues; type: in vivo, nude mice; settings: 200 mg/kg oral daily for 7 days
Procedure: as §1, with “For Western blot analysis, the amount of protein (40 µg) was separated by electrophoresis in a 10% or 15% polyacrylamide gel and transferred to a polyvinylidene difluoride (PVDF) membrane.” left out
as §2

[5] = tested on: human HCT116 colorectal cancer xenograft; assay: HCT116 xenograft, tumor growth delay to 1,200 mm^3 endpoint; type: in vivo, nude mice
Procedure: The human HCT116 colorectal adenocarcinoma cells used for implantation were harvested during log phase growth and resuspended in phosphate-buffered saline at 5×10^7 cells/mL. Each mouse was injected s.c. in the right flank with 1.0×10^7 cells (0.2 mL cell suspension). Tumors were monitored twice weekly and then daily as their volumes approached 1,200 mm^3. Tumor size, in mm^3, was calculated from: where w = width and l = length in mm of the tumor. Tumor volume = (w^2×l)/2.
The logrank test was used to determine the statistical significance of the difference between the TTE values of two groups, except any NTR deaths. […] The two-tailed statistical analyses were conducted at P = 0.05. Kaplan-Meier plots show the percentage of animals remaining in the study versus time. The Kaplan-Meier plots use the same data set as the logrank test.
as §2

[6] = tested on: HCT116 cells; assay: Sulforhodamine B cell growth assay; type: cell-based; settings: Homo sapiens, HCT-116, 48 h
Procedure: HCT116, MDAMB231 and NCI-ADR cells were seeded in 96-well plates in medium with 5% fetal bovine serum overnight. Cells were fixed with 10% trichloroacetic representing cell population at the time of drug treatment (T 0). […] Excess Sulforhodamine B was washed away by 1% acetic acid and dye-containing cells were lysed with 10 mmol/L Trizma base. […] By measuring time zero (T 0), control growth (C), and cell growth in the presence of the drug (Tx), the percentage growth was calculated. Percentage growth inhibition was calculated as 100-[(Tx–T 0)/(C-T 0)]×100.

With `O=C(CCCCCCC(=O)Nc1ccccc1)NO` [SAHA, suberoylanilide hydroxamic acid, reference compound] the “α-tubulin acetylation (western blot)” value [1] was “exhibited more potent α-tubulin acetylation than MPT0E028”, the “body weight and other adverse effects” value [2] was “No significant body weight difference or other adverse effects” and the “sub-G1 population (flow cytometry)” value [3] was “weaker effect and delayed cytotoxicity”. For the same compound, the “expression of caspase 3, PARP, acetyl-histone H3 and acetyl-tubulin in xenograft tumors” value [4] was “acetyl-µ-tubulin were found more profoundly”, the “Median TTE” value ([5]; 200 mg/kg po qd to endpoint 1200 mm^3) was 27.0 days and the “No. of CR (complete regression)” value ([5]; 200 mg/kg po qd, 8 mice per group) was 0. For the same compound, the “%TGD (tumor growth delay)” value ([5]; 200 mg/kg po qd, [(T-C)/C]×100) was 63%, the T-C ([5]; 200 mg/kg po qd, median TTE treated versus control) was 10.0 days and 10 days and the GI50 [6] was 820 ± 70 nM.
